Data from US8912336B2, “Aryl and heteroaryl sulfones as mGluR4 allosteric potentiators, compositions, and methods of treating neurological dysfunction” (Vanderbilt University, priority 2009, dated 2014).

These compounds were tested against T1, human mGluR4 (Homo sapiens, UniProt Q14833) (assay: Potentiation of human mGluR4 in transfected CHO cells, Ca2+-sensitive fluorescent dye, EC20 agonist). Settings: values in E-notation, unit inferred, read-out: hEC50.
T1 construct: expressed in transfected cells; host or cells: Chinese Hamster Ovary (CHO) cells
T1 sequence (Q14833 33-912): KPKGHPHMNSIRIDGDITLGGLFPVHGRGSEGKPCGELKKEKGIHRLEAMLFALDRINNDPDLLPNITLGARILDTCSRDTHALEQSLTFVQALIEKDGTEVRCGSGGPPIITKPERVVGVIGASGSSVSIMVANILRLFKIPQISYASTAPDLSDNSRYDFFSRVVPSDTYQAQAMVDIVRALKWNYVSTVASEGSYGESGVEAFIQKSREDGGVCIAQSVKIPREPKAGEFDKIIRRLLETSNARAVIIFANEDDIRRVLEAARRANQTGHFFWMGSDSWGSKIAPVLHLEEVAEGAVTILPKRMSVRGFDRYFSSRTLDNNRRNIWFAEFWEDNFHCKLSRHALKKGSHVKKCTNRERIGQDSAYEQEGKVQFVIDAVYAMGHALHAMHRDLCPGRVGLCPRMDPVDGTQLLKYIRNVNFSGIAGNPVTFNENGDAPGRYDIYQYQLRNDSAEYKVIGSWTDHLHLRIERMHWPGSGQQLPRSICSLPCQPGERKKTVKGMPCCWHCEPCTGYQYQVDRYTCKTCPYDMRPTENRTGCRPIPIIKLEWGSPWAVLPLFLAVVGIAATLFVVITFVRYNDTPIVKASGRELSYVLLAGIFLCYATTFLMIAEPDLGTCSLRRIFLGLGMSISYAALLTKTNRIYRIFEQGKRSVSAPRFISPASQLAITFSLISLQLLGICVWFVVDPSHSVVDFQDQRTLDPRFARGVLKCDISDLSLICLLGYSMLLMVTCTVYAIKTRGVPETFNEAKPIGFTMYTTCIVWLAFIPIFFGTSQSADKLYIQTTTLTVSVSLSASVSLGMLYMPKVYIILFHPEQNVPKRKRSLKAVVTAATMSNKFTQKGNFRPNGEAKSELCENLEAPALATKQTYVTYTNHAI
Format: cell-based
Protocol: The disclosed compounds and compositions can be evaluated for their ability to act as a potentiator of metabotropic glutamate receptor activity, in particular mGluR4 activity, by any suitable known methodology known in the art. For example, Chinese Hamster Ovary (CHO) cells transfected with human mGluR4 or HEK cells co-transfected with rat mGluR4 and the G-protein regulated Inwardly Rectifying Potassium channel (GIRK) were plated in clear bottom assay plates for assay in a Hamamatsu FDSS Fluorometric Plate Reader. The cells were loaded with either a Ca2+-sensitive fluorescent dye or the thallium responsive dye and the plates were washed and placed into a suitable kinetic plate reader. For human mGluR4 assays, a fluorescence baseline was established for 3-5 seconds, the disclosed compounds were then added to the cells, and the response in cells was measured. Approximately two and a half minutes later, a concentration of mGluR4 orthosteric agonist (e.g. glutamate or L-AP4) eliciting approximately 20% (EC20) of the maximal agonist response was added to the cells, and the response was measured. Two minutes later, a concentration of mGluR4 agonist (e.g. glutamate or L-AP4) eliciting 80% (EC80) of the maximal agonist response was added to the cells, and the response was measured. For rat mGluR4/GIRK experiments, a baseline was established for approximately five seconds, disclosed compounds were added, and either an EC20 or EC80 concentration of agonist was added approximately two and one half minutes later.
The above described assay operated in two modes. In the first mode, a range of concentrations of the disclosed compounds are added to cells, followed by a single fixed concentration of agonist. If the compound acts as a potentiatior, an EC50 value for potentiation and a maximum extent of potentiation by the compound at this concentration of agonist is determined by non-linear curve fitting. If the compound acts as a noncompetitive antagonist, an IC50 value is determined by non-linear curve fitting. In the second mode, several fixed concentrations of the disclosed compounds are added to various wells on a plate, followed by a range in concentrations of agonist for each concentration of disclosed compound. The EC50 values for the agonist at each concentration of compound are determined by non-linear curve fitting. A decrease in the EC50 value of the agonist with increasing concentrations of the sample compound (a leftward shift of the agonist concentration-response curve) is an indication of the degree of mGluR4 potentiation at a given concentration of the sample compound. A decrease in the maximal response of the agonist with increasing concentrations of the sample compounds, with or without a rightward shift in agonist potency, is an indication of the degree of noncompetitive antagonism at mGluR4. The second mode also indicates whether the sample compounds also affect the maximum response to mGluR4 to agonists.

SMILES	EC50
Clc1ccccc1CSc1ccc2[nH]c(-c3ccccn3)nc2c1 [Example 1, 5-(2-Chlorobenzylthio)-2-(pyridin-2-yl)-1H-benzo[d]imidazole]	2.48 µM
O=S(=O)(Cc1ccccc1Cl)c1ccc2[nH]c(-c3ccccn3)nc2c1 [Example 2, 5-(2-Chlorobenzylsulfonyl)-2-(pyridin-2-yl)-1H-benzo[d]imidazole]	0.421 µM
Fc1ccccc1CSc1ccc2[nH]c(-c3ccccn3)nc2c1 [Example 3, 5-((2-fluorobenzyl)thio)-2-(pyridin-2-yl)-1H-benzo[d]imidazole]	2.45 µM
O=S(=O)(Cc1ccccc1F)c1ccc2[nH]c(-c3ccccn3)nc2c1 [Example 4, 5-((2-fluorobenzyl)sulfonyl)-2-(pyridin-2-yl)-1H-benzo[d]imidazole]	0.33 µM
O=S(=O)(Cc1ccccc1Cl)c1cc2nc(-c3ccccn3)[nH]c2cc1Cl [Example 5, 6-chloro-5-((2-chlorobenzyl)sulfonyl)-2-(pyridin-2-yl)-1H-benzo[d]imidazole]	0.35 µM
O=S(=O)(Cc1ccc(Cl)cc1Cl)c1ccc2[nH]c(-c3ccccn3)nc2c1 [Example 6, 5-((2,4-dichlorobenzyl)sulfonyl)-2-(pyridin-2-yl)-1H-benzo[d]imidazole]	0.0568 µM
O=S(=O)(Cc1cc(F)ccc1F)c1ccc2[nH]c(-c3ccccn3)nc2c1 [Example 7, 5-((2,5-difluorobenzyl)sulfonyl)-2-(pyridin-2-yl)-1H-benzo[d]imidazole]	0.434 µM
O=S(=O)(Cc1ccc(F)cc1F)c1ccc2[nH]c(-c3ccccn3)nc2c1 [Example 8, 5-((2,4-difluorobenzyl)sulfonyl)-2-(pyridin-2-yl)-1H-benzo[d]imidazole]	0.209 µM
O=S(=O)(Cc1c(F)cccc1F)c1ccc2[nH]c(-c3ccccn3)nc2c1 [Example 9, 5-((2,6-difluorobenzyl)sulfonyl)-2-(pyridin-2-yl)-1H-benzo[d]imidazole]	0.155 µM
O=S(=O)(Cc1cc(F)c(F)cc1F)c1ccc2[nH]c(-c3ccccn3)nc2c1 [Example 10, 2-(pyridin-2-yl)-5-((2,4,5-trifluorobenzyl)sulfonyl)-1H-benzo[d]imidazole]	0.462 µM
O=S(=O)(Cc1ccccc1Cl)c1ccc2[nH]c(-c3cccc(Cl)n3)nc2c1 [Example 11, 5-((2-chlorobenzyl)sulfonyl)-2-(6-chloropyridin-2-yl)-1H-benzo[d]imidazole]	0.0754 µM
O=S(=O)(Cc1ccccc1Cl)c1ccc2[nH]c(-c3nccs3)nc2c1 [Example 12, 2-(5-((2-chlorobenzyl)sulfonyl)-1H-benzo[d]imidazol-2-yl)thiazole]	1.45 µM
O=S(=O)(Cc1ccccc1Cl)c1ccc2[nH]c(-c3cscn3)nc2c1 [Example 13, 4-(5-((2-chlorobenzyl)sulfonyl)-1H-benzo[d]imidazol-2-yl)thiazole]	1.84 µM
O=S(=O)(Cc1ccccc1Cl)c1ccc2[nH]c(-c3ncc(F)cc3F)nc2c1 [Example 14, 5-((2-chlorobenzyl)sulfonyl)-2-(3,5-difluoropyridin-2-yl)-1H-benzo[d]imidazole]	0.45 µM
O=S(=O)(Cc1ccccc1Cl)c1ccc2[nH]c(-c3cccc(F)n3)nc2c1 [Example 15, 5-((2-chlorobenzyl)sulfonyl)-2-(6-fluoropyridin-2-yl)-1H-benzo[d]imidazole]	0.927 µM
O=S(=O)(Cc1ccccc1Cl)c1ccc2[nH]c(-c3ncccc3F)nc2c1 [Example 16, 5-((2-chlorobenzyl)sulfonyl)-2-(3-fluoropyridin-2-yl)-1H-benzo[d]imidazole]	0.221 µM

SMILES	EC50
[O-][S+](Cc1ccccc1Cl)c1cc2nc(-c3ccccn3)[nH]c2cc1Cl (stereo not shown) [Example 17, 6-chloro-5-((2-chlorobenzyl)sulfinyl)-2-(pyridin-2-yl)-1H-benzo[d]imidazole]	2.41 µM
O=S(=O)(Cc1ccc(Cl)cc1F)c1ccc2[nH]c(-c3cccc[n+]3O)nc2c1 [Example 18, 2-(5-((4-chloro-2-fluorobenzyl)sulfonyl)-1H-benzo[d]imidazol-2-yl)-1-hydroxypyridin-1-ium]	0.272 µM
O=S(=O)(Cc1ccc(Cl)cc1F)c1ccc2[nH]c(-c3ccccn3)nc2c1 [Example 19, 5-((4-chloro-2-fluorobenzyl)sulfonyl)-2-(pyridin-2-yl)-1H-benzo[d]imidazole]	0.0823 µM
O=S(=O)(Cc1cccc(Cl)c1F)c1ccc2[nH]c(-c3cccc[n+]3O)nc2c1 [Example 20, 2-(5-((3-chloro-2-fluorobenzyl)sulfonyl)-1H-benzo[d]imidazol-2-yl)-1-hydroxypyridin-1-ium]	1.06 µM
O=S(=O)(Cc1cccc(Cl)c1F)c1ccc2[nH]c(-c3ccccn3)nc2c1 [Example 21, 5-((3-chloro-2-fluorobenzyl)sulfonyl)-2-(pyridin-2-yl)-1H-benzo[d]imidazole]	0.194 µM
O=S(=O)(Cc1c(F)cccc1Cl)c1ccc2[nH]c(-c3ccccn3)nc2c1 [Example 22, 5-((2-chloro-6-fluorobenzyl)sulfonyl)-2-(pyridin-2-yl)-1H-benzo[d]imidazole]	0.0553 µM
O=S(=O)(Cc1ccc(Cl)cc1Cl)c1cc2nc(-c3ccccn3)[nH]c2cc1Cl [Example 23, 6-chloro-5-((2,4-dichlorobenzyl)sulfonyl)-2-(pyridin-2-yl)-1H-benzo[d]imidazole]	1.52 µM
O=S(=O)(Cc1c(F)cccc1Cl)c1cc2nc(-c3ccccn3)[nH]c2cc1Cl [Example 24, 6-chloro-5-((2-chloro-6-fluorobenzyl)sulfonyl)-2-(pyridin-2-yl)-1H-benzo[d]imidazole]	0.112 µM
O=S(=O)(Cc1ccccc1Cl)c1cc2nc(-c3ccccn3)[nH]c2cc1F [Example 25, 5-((2-chlorobenzyl)sulfonyl)-6-fluoro-2-(pyridin-2-yl)-1H-benzo[d]imidazole]	0.341 µM
O=S(=O)(Cc1ccc(Cl)cc1F)c1cc2nc(-c3ccccn3)[nH]c2cc1Cl [Example 26, 6-chloro-5-((4-chloro-2-fluorobenzyl)sulfonyl)-2-(pyridin-2-yl)-1H-benzo[d]imidazole]	0.446 µM
O=C(Nc1ccc(S(=O)(=O)Cc2ccccc2Cl)cc1)c1ccccn1 [Example 27, N-(4-((2-chlorobenzyl)sulfonyl)phenyl)picolinamide]	0.237 µM
O=C(Nc1ccc(S(=O)(=O)Cc2ccccc2Cl)cc1)c1ccco1 [Example 28, N-(4-((2-chlorobenzyl)sulfonyl)phenyl)furan-2-carboxamide]	0.427 µM
O=C(Nc1ccc(S(=O)(=O)Cc2ccccc2Cl)cc1)c1cccc(Cl)n1 [Example 30, 6-chloro-N-(4-((2-chlorobenzyl)sulfonyl)phenyl)picolinamide]	1.1 µM
O=C(Nc1ccc(S(=O)(=O)Cc2ccccc2Cl)cc1)c1ncccc1F [Example 31, N-(4-((2-chlorobenzyl)sulfonyl)phenyl)-3-fluoropicolinamide]	0.73 µM
Cc1cccc(C(=O)Nc2ccc(S(=O)(=O)Cc3ccccc3Cl)cc2)n1 [Example 32, N-(4-((2-chlorobenzyl)sulfonyl)phenyl)-6-methylpicolinamide]	5.4 µM
